Molecular target: T1, MGFR portion of the MUC1 receptor (His-PSMGFR) and ligand(s) in T47D lysate (Homo sapiens, UniProt P15941, R1131P)
T1 construct: made in house; host or cells: chemical synthesis (synthetic peptide)
T1 sequence (P15941 with tags, fused parts or gaps R1131P): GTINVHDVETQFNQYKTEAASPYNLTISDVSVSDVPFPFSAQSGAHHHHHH
Experiment: Colloid color-change ligand binding assay with or without enzyme inhibitor
Assay type: biochemical
Details: T47D lysate treated with inhibitor, final concentration 3 mM
Procedure: To test the hypothesis that the MGFR portion of the MUC1 receptor is enzymatically modified prior to binding to its ligand(s), the drug screening assay described in Example 5a was performed in the presence or absence of an enzyme inhibitor, PMSF (phenylmethylsulfonyl fluoride; Sigma chemical Co. St. Louis Mo., USA). T47D cells, which are breast tumor cells that aberrantly express MUC1, were grown to 70% confluency, treated with trypsin to detach from the flask, and pelleted by centrifugation. A lysate was prepared as follows from the pellets of two T75 flasks. Cell pellets were resuspended in 300 μL phosphate buffer (10 mM sodium phosphate, 100 mM NaCl, pH 7.4). The lysate was divided into two parts. One aliquot of lysate was used as is. To the second aliquot was added 9 μL of a 100 mM stock solution to achieve a final concentration 3 mM. The lysates were frozen and thawed four times with 15 seconds of vigorous mixing after each thawing. Lysates were then pelleted by centrifugation and the supernatant collected. Lysates were diluted by adding 6.2 ml of phosphate buffer. The drug screening assay was then performed as described in Example 5a, with the exception that no drugs were added. Rather the ability of the ligand(s) in the lysate to bind to the MGFR in a multimeric way, which would result in the solution color to change to blue, was tested. […]

**Q.** For `O=S(=O)(F)Cc1ccccc1` [PMSF, phenylmethylsulfonyl fluoride], which “Solution color change (ligand binding to His-PSMGFR colloids)” value is on record?
**A.** did not change color and remained pink

From patent US8344113B2, “Diagnostic tumor markers, drug screening for tumorigenesis inhibition, and compositions and methods for treatment of cancer” (Minerva Biotechnologies Corporation, priority 2000, dated 2013)
